Source: the NIST ThermoML archive (doi:10.1021/je3008974)
Numbers after ± are expanded uncertainties.

Conditions: Liquid
[1] = 298.15 K, 2000 kPa, Pycnometric method

## F/C=C/C(F)(F)F [trans-1,3,3,3-tetrafluoropropene]
285.5 K, 1018.5 kPa, isochoric method
  mass density: 1205.5 ± 2.4 kg/m3
286.92 K, 2021.5 kPa, isochoric method
  mass density: 1205.4 ± 2.4 kg/m3
288.32 K, 3010.5 kPa, isochoric method
  mass density: 1205.3 ± 2.4 kg/m3
289.41 K, 3779.9 kPa, isochoric method
  mass density: 1205.2 ± 2.4 kg/m3
291.42 K, 20124 kPa, isochoric method
  mass density: 1254.7 ± 2.4 kg/m3
291.45 K, 5221.8 kPa, isochoric method
  mass density: 1205 ± 2.4 kg/m3
298.03 K, 1062.5 kPa, isochoric method
  mass density: 1165.6 ± 2.4 kg/m3
298.14 K, 9928.4 kPa, isochoric method
  mass density: 1204.5 ± 2.4 kg/m3
[1]
  mass density: 1170.52 ± 1.1 kg/m3
299.62 K, 2045.7 kPa, isochoric method
  mass density: 1165.5 ± 2.4 kg/m3
301.21 K, 3025.5 kPa, isochoric method
  mass density: 1165.3 ± 2.4 kg/m3
302.81 K, 4026.8 kPa, isochoric method
  mass density: 1165.2 ± 2.4 kg/m3
304.38 K, 4991.3 kPa, isochoric method
  mass density: 1165.1 ± 2.4 kg/m3
305.08 K, 14792 kPa, isochoric method
  mass density: 1203.9 ± 2.4 kg/m3
312.4 K, 1349.3 kPa, isochoric method
  mass density: 1117.7 ± 2.4 kg/m3
312.58 K, 10069 kPa, isochoric method
  mass density: 1164.5 ± 2.4 kg/m3
312.58 K, 19938 kPa, isochoric method
  mass density: 1203.3 ± 2.4 kg/m3
313.7 K, 2032.5 kPa, isochoric method
  mass density: 1117.6 ± 2.4 kg/m3
315.61 K, 3038.9 kPa, isochoric method
  mass density: 1117.5 ± 2.4 kg/m3
317.51 K, 4033.2 kPa, isochoric method
  mass density: 1117.4 ± 2.4 kg/m3
319.6 K, 5142.9 kPa, isochoric method
  mass density: 1117.2 ± 2.4 kg/m3
319.8 K, 24935 kPa, isochoric method
  mass density: 1202.7 ± 2.4 kg/m3
320.41 K, 14882 kPa, isochoric method
  mass density: 1163.9 ± 2.4 kg/m3
327 K, 29927 kPa, isochoric method
  mass density: 1202.2 ± 2.4 kg/m3
328.71 K, 2042.5 kPa, isochoric method
  mass density: 1060.1 ± 2.4 kg/m3
328.71 K, 9986.8 kPa, isochoric method
  mass density: 1116.5 ± 2.4 kg/m3
328.72 K, 19949 kPa, isochoric method
  mass density: 1163.2 ± 2.4 kg/m3
330.83 K, 2963.3 kPa, isochoric method
  mass density: 1060 ± 2.4 kg/m3
333.13 K, 3964.2 kPa, isochoric method
  mass density: 1059.8 ± 2.4 kg/m3
334.34 K, 34952 kPa, isochoric method
  mass density: 1201.6 ± 2.4 kg/m3
335.43 K, 4968.4 kPa, isochoric method
  mass density: 1059.7 ± 2.4 kg/m3
336.83 K, 24924 kPa, isochoric method
  mass density: 1162.6 ± 2.4 kg/m3
337.81 K, 14797 kPa, isochoric method
  mass density: 1115.9 ± 2.4 kg/m3
341.91 K, 40043 kPa, isochoric method
  mass density: 1201 ± 2.4 kg/m3
345.09 K, 29935 kPa, isochoric method
  mass density: 1162 ± 2.4 kg/m3
346.84 K, 9943.4 kPa, isochoric method
  mass density: 1058.9 ± 2.4 kg/m3
347.53 K, 19908 kPa, isochoric method
  mass density: 1115.2 ± 2.4 kg/m3
353.15 K, 12717 kPa, isochoric method
  mass density: 1058.5 ± 2.4 kg/m3
353.15 K, 22854 kPa, isochoric method
  mass density: 1114.8 ± 2.4 kg/m3
353.15 K, 34806 kPa, isochoric method
  mass density: 1161.4 ± 2.4 kg/m3

## FC(F)(F)I [trifluoroiodomethane]
207.79 K, 10925 kPa, isochoric method
  mass density: 2455.5 ± 2.9 kg/m3
210.4 K, 14322 kPa, isochoric method
  mass density: 2455 ± 2.9 kg/m3
214.87 K, 20130 kPa, isochoric method
  mass density: 2454.2 ± 2.9 kg/m3
214.92 K, 1055.7 kPa, isochoric method
  mass density: 2401.1 ± 2.9 kg/m3
215.96 K, 2305 kPa, isochoric method
  mass density: 2400.9 ± 2.9 kg/m3
216.71 K, 3175.5 kPa, isochoric method
  mass density: 2400.7 ± 2.9 kg/m3
217.73 K, 4381.5 kPa, isochoric method
  mass density: 2400.5 ± 2.9 kg/m3
218.37 K, 5116.4 kPa, isochoric method
  mass density: 2400.4 ± 2.9 kg/m3
218.48 K, 25008 kPa, isochoric method
  mass density: 2453.5 ± 2.9 kg/m3
222.4 K, 29924 kPa, isochoric method
  mass density: 2452.8 ± 2.9 kg/m3
222.62 K, 10052 kPa, isochoric method
  mass density: 2399.6 ± 2.9 kg/m3
226.21 K, 34684 kPa, isochoric method
  mass density: 2452.1 ± 2.9 kg/m3
226.99 K, 15121 kPa, isochoric method
  mass density: 2398.8 ± 2.9 kg/m3
229.95 K, 39202 kPa, isochoric method
  mass density: 2451.5 ± 2.9 kg/m3
231.25 K, 20002 kPa, isochoric method
  mass density: 2398.1 ± 2.9 kg/m3
231.74 K, 1109.5 kPa, isochoric method
  mass density: 2334.8 ± 2.8 kg/m3
233.57 K, 2990.1 kPa, isochoric method
  mass density: 2334.5 ± 2.8 kg/m3
234.66 K, 4114 kPa, isochoric method
  mass density: 2334.3 ± 2.8 kg/m3
235.46 K, 4930.4 kPa, isochoric method
  mass density: 2334.1 ± 2.8 kg/m3
235.5 K, 24985 kPa, isochoric method
  mass density: 2397.3 ± 2.9 kg/m3
239.91 K, 29944 kPa, isochoric method
  mass density: 2396.6 ± 2.9 kg/m3
240.52 K, 10116 kPa, isochoric method
  mass density: 2333.3 ± 2.8 kg/m3
244.17 K, 34707 kPa, isochoric method
  mass density: 2395.8 ± 2.9 kg/m3
245.45 K, 15114 kPa, isochoric method
  mass density: 2332.4 ± 2.8 kg/m3
248.78 K, 39783 kPa, isochoric method
  mass density: 2395.1 ± 2.9 kg/m3
250.46 K, 20143 kPa, isochoric method
  mass density: 2331.6 ± 2.8 kg/m3
251.97 K, 1975.5 kPa, isochoric method
  mass density: 2256.4 ± 2.8 kg/m3
253.21 K, 3063.1 kPa, isochoric method
  mass density: 2256.2 ± 2.8 kg/m3
254.16 K, 3884.4 kPa, isochoric method
  mass density: 2256 ± 2.8 kg/m3
255.27 K, 4873.4 kPa, isochoric method
  mass density: 2255.8 ± 2.8 kg/m3
255.32 K, 25028 kPa, isochoric method
  mass density: 2330.8 ± 2.8 kg/m3
260.19 K, 29834 kPa, isochoric method
  mass density: 2330 ± 2.8 kg/m3
261.5 K, 10373 kPa, isochoric method
  mass density: 2254.8 ± 2.8 kg/m3
265.13 K, 34684 kPa, isochoric method
  mass density: 2329.2 ± 2.8 kg/m3
266.41 K, 776 kPa, isochoric method
  mass density: 2188.5 ± 2.7 kg/m3
266.75 K, 1052.9 kPa, isochoric method
  mass density: 2188.4 ± 2.7 kg/m3
267.06 K, 15109 kPa, isochoric method
  mass density: 2253.2 ± 2.8 kg/m3
267.97 K, 1992.8 kPa, isochoric method
  mass density: 2188.2 ± 2.7 kg/m3
269.24 K, 2976.2 kPa, isochoric method
  mass density: 2188 ± 2.7 kg/m3
270.53 K, 3984.6 kPa, isochoric method
  mass density: 2187.8 ± 2.7 kg/m3
270.93 K, 40330 kPa, isochoric method
  mass density: 2328.3 ± 2.8 kg/m3
272.12 K, 5216.5 kPa, isochoric method
  mass density: 2187.6 ± 2.7 kg/m3
272.85 K, 20116 kPa, isochoric method
  mass density: 2252.3 ± 2.8 kg/m3
278.48 K, 25009 kPa, isochoric method
  mass density: 2252.2 ± 2.8 kg/m3
278.49 K, 10098 kPa, isochoric method
  mass density: 2186.6 ± 2.7 kg/m3
278.5 K, 24979 kPa, isochoric method
  mass density: 2251.5 ± 2.8 kg/m3
284.17 K, 29780 kPa, isochoric method
  mass density: 2250.6 ± 2.8 kg/m3
284.36 K, 940.5 kPa, isochoric method
  mass density: 2105.8 ± 2.7 kg/m3
285.08 K, 15134 kPa, isochoric method
  mass density: 2185.7 ± 2.7 kg/m3
285.92 K, 1976.8 kPa, isochoric method
  mass density: 2105.6 ± 2.7 kg/m3
287.34 K, 2905.5 kPa, isochoric method
  mass density: 2105.4 ± 2.7 kg/m3
288.88 K, 3930.3 kPa, isochoric method
  mass density: 2105.2 ± 2.7 kg/m3
290.4 K, 34997 kPa, isochoric method
  mass density: 2249.7 ± 2.8 kg/m3
290.43 K, 4950.8 kPa, isochoric method
  mass density: 2104.9 ± 2.7 kg/m3
291.69 K, 20129 kPa, isochoric method
  mass density: 2184.7 ± 2.7 kg/m3
296.15 K, 39750 kPa, isochoric method
  mass density: 2248.8 ± 2.8 kg/m3
297.94 K, 861.4 kPa, isochoric method
  mass density: 2038.1 ± 2.7 kg/m3
298.14 K, 10026 kPa, isochoric method
  mass density: 2103.9 ± 2.7 kg/m3
[1]
  mass density: 2046.84 ± 2.2 kg/m3
298.15 K, 25035 kPa, isochoric method
  mass density: 2183.8 ± 2.7 kg/m3
300.01 K, 2068.2 kPa, isochoric method
  mass density: 2037.9 ± 2.7 kg/m3
301.75 K, 3070.1 kPa, isochoric method
  mass density: 2037.6 ± 2.7 kg/m3
303.44 K, 4061.6 kPa, isochoric method
  mass density: 2037.4 ± 2.7 kg/m3
304.54 K, 29729 kPa, isochoric method
  mass density: 2182.8 ± 2.7 kg/m3
305.17 K, 5069.5 kPa, isochoric method
  mass density: 2037.2 ± 2.7 kg/m3
305.56 K, 14805 kPa, isochoric method
  mass density: 2102.8 ± 2.7 kg/m3
311.69 K, 35046 kPa, isochoric method
  mass density: 2181.8 ± 2.7 kg/m3
313.22 K, 982.5 kPa, isochoric method
  mass density: 1957.5 ± 2.6 kg/m3
313.53 K, 19969 kPa, isochoric method
  mass density: 2101.8 ± 2.7 kg/m3
313.58 K, 9932.8 kPa, isochoric method
  mass density: 2036.1 ± 2.7 kg/m3
315.12 K, 1958.3 kPa, isochoric method
  mass density: 1957.3 ± 2.6 kg/m3
317.18 K, 2990.2 kPa, isochoric method
  mass density: 1957 ± 2.6 kg/m3
318.54 K, 40060 kPa, isochoric method
  mass density: 2180.9 ± 2.7 kg/m3
319.17 K, 3976.2 kPa, isochoric method
  mass density: 1956.8 ± 2.6 kg/m3
321.22 K, 5005.2 kPa, isochoric method
  mass density: 1956.5 ± 2.6 kg/m3
321.68 K, 25300 kPa, isochoric method
  mass density: 2100.7 ± 2.7 kg/m3
322.38 K, 14998 kPa, isochoric method
  mass density: 2034.9 ± 2.7 kg/m3
328.99 K, 1994.4 kPa, isochoric method
  mass density: 1875.8 ± 2.6 kg/m3
329.49 K, 30240 kPa, isochoric method
  mass density: 2099.6 ± 2.7 kg/m3
331.3 K, 2985.8 kPa, isochoric method
  mass density: 1875.6 ± 2.6 kg/m3
331.3 K, 10058 kPa, isochoric method
  mass density: 1955.3 ± 2.6 kg/m3
331.31 K, 20061 kPa, isochoric method
  mass density: 2033.8 ± 2.7 kg/m3
333.64 K, 3972.3 kPa, isochoric method
  mass density: 1875.3 ± 2.6 kg/m3
336 K, 4985.7 kPa, isochoric method
  mass density: 1875 ± 2.6 kg/m3
337.32 K, 35169 kPa, isochoric method
  mass density: 2098.6 ± 2.7 kg/m3
340.45 K, 25264 kPa, isochoric method
  mass density: 2032.6 ± 2.7 kg/m3
341.64 K, 15161 kPa, isochoric method
  mass density: 1954 ± 2.6 kg/m3
343.84 K, 39291 kPa, isochoric method
  mass density: 2097.7 ± 2.7 kg/m3
353.14 K, 20828 kPa, isochoric method
  mass density: 1952.6 ± 2.6 kg/m3
353.15 K, 12322 kPa, isochoric method
  mass density: 1873 ± 2.6 kg/m3
353.15 K, 32431 kPa, isochoric method
  mass density: 2031 ± 2.7 kg/m3
